Results: article PMC3343204 (Clinical Cancer Research, 2012)

Tests used:
[1] = test system: dedifferentiated liposarcoma cell lines, with amplified CDK4; experiment: Sensitivity of liposarcoma cell lines; type: cell-based, human; details: prior observations, data not shown
CDK2 = details: cited from earlier work
[2] = patients, cited from earlier work
CDK9 = details: cited from earlier work
CDK6 = details: cited from earlier work
MPNST cells = experiment: Colony formation assay; type: cell-based, human; details: for IC50: Homo sapiens, 24 h
[3] = Flavopiridol plasma pharmacokinetics in phase I trial; type: in vivo, human
[4] = human plasma; cited from earlier work
CDK4 = details: cited from earlier work

SMILES | sensitivity to flavopiridol [1] | inhibition of CDK2 (CDK2) | MTD, single agent bolus schedule ([2]; approximate) [mg/m^2] | MTD, single agent divided dose flavopiridol therapy ([2]; bolus followed by infusion) [mg/m^2] | inhibition of CDK9 (CDK9) | inhibition of CDK6 (CDK6) | IC50 (MPNST cells) [nM] | colony formation (percentage of untreated controls) (MPNST cells; MPNST cells, flavopiridol alone 150 nM 24 hours, colonies after 10 days) [%] | time point at which Cmax was observed ([3]; first time point analyzed in each schedule) [h] | Cmax ([3]; human, plasma, intravenous, Mean Cmax, cycle 1, cohort 8 (doxorubicin 60, flavopiridol 90 (50/40) mg/m^2), n 4) [µM] | protein binding in plasma [4] [%] | inhibition of CDK4 (CDK4)
CN1CC[C@H](c2c(O)cc(O)c3c(=O)cc(-c4ccccc4Cl)oc23)[C@H](O)C1 [flavopiridol] | highly sensitive | nanomolar concentrations | ~70 | 90 | nanomolar concentrations | nanomolar concentrations | 150 | 59 | 0.5 | 3.33 | 90 | nanomolar concentrations
COc1cccc2c1C(=O)c1c(O)c3c(c(O)c1C2=O)C[C@@](O)(C(=O)CO)C[C@@H]3O[C@H]1C[C@H](N)[C@H](O)[C@H](C)O1 [doxorubicin] |  |  |  |  |  |  | 15 |  |  |  |  | 
